Test results from the NIST ThermoML archive (doi:10.1016/j.jct.2016.01.002).

Test: xn = mol fraction of the nth substance listed
Details: 100 kPa, Liquid; for electrical conductivity: Direct current cell with electrodes; for mass density: Vibrating tube method; for viscosity: Concentric cylinders viscometry

[Cl][Fe]([Cl])[Cl] [ferric chloride] + CCCCn1cc[n+](C)c1.[Cl-]
Details	electrical conductivity [S/m]	mass density [kg/m3]	viscosity [mPa·s]
293.15 K, x1 = 0.3704	0.1033	1279.5	–
293.15 K, x1 = 0.4	0.172	1299.3	–
293.15 K, x1 = 0.4348	0.306	1322.8	–
293.15 K, x1 = 0.4545	0.406	1337.1	–
293.15 K, x1 = 0.4762	0.541	1352.4	–
293.15 K, x1 = 0.5	0.722	1369.9	–
293.15 K, x1 = 0.5238	0.675	1391.6	–
293.15 K, x1 = 0.5652	0.626	1433.4	–
293.15 K, x1 = 0.6	0.604	1468.1	–
298.15 K, x1 = 0.3704	0.1436	1275.8	195.6
298.15 K, x1 = 0.4	0.228	1295.2	123
298.15 K, x1 = 0.4348	0.387	1318.7	70.2
298.15 K, x1 = 0.4545	0.502	1332.9	51.1
298.15 K, x1 = 0.4762	0.658	1348.3	38.7
298.15 K, x1 = 0.5	0.864	1365.7	31.2
298.15 K, x1 = 0.5238	0.809	1387.4	30.1
298.15 K, x1 = 0.5652	0.747	1428.8	28.4
298.15 K, x1 = 0.6	0.719	1463.5	27.4
303.15 K, x1 = 0.3704	0.192	1271.9	–
303.15 K, x1 = 0.4	0.295	1291.2	–
303.15 K, x1 = 0.4348	0.478	1314.4	–
303.15 K, x1 = 0.4545	0.61	1328.8	–
303.15 K, x1 = 0.4762	0.786	1343.8	–
303.15 K, x1 = 0.5	1.011	1361.4	–
303.15 K, x1 = 0.5238	0.952	1383.4	–
303.15 K, x1 = 0.5652	0.878	1424.3	–
303.15 K, x1 = 0.6	0.84	1458.4	–
308.15 K, x1 = 0.3704	0.25	1268.1	–
308.15 K, x1 = 0.4	0.371	1287.4	–
308.15 K, x1 = 0.4348	0.582	1310.2	–
308.15 K, x1 = 0.4545	0.728	1324.8	–
308.15 K, x1 = 0.4762	0.926	1339.7	–
308.15 K, x1 = 0.5	1.18	1357.3	–
308.15 K, x1 = 0.5238	1.105	1378.9	–
308.15 K, x1 = 0.5652	1.017	1420	–
308.15 K, x1 = 0.6	0.973	1454.3	–
313.15 K, x1 = 0.3704	0.316	1264.2	–
313.15 K, x1 = 0.4	0.457	1283.3	–
313.15 K, x1 = 0.4348	0.696	1306.5	–
313.15 K, x1 = 0.4545	0.858	1320.6	–
313.15 K, x1 = 0.4762	1.07	1335.6	–
313.15 K, x1 = 0.5	1.35	1353.1	–
313.15 K, x1 = 0.5238	1.26	1374.5	–
313.15 K, x1 = 0.5652	1.16	1415.6	–
313.15 K, x1 = 0.6	1.114	1449.7	–
318.15 K, x1 = 0.3704	0.394	–	–
318.15 K, x1 = 0.4	0.556	–	–
318.15 K, x1 = 0.4348	0.823	–	–
318.15 K, x1 = 0.4545	0.998	–	–
